Reference: ChEMBL document CHEMBL5725254, “Substituted annulated triazines and use thereof” (2016)

Target: cGMP-specific 3',5'-cyclic phosphodiesterase (Homo sapiens, UniProt O76074)
Assay: Inhibition Assay: To determine their in vitro action on human PDE 5, the test substances are dissolved in 100% DMSO and serially diluted. Typically, dilution series (1:3) from 200 uM to 0.091 uM are prepared (resulting final concentrations in the test: 4 uM to 0.0018 uM). In each case 2 ul of the diluted substance solutions are placed into the wells of microtitre plates (Isoplate-96/200W; Perkin Elmer). Subsequently, 50 ul of a dilution of the above-described PDE 5 preparation are added. The dilution of the PDE 5 preparation is chosen such that during the later incubation less than 70% of the substrate are converted (typical dilution: 1:100; dilution buffer: 50 mM Tris/hydrochloric acid pH 7.5, 8.3 mM magnesium chloride, 1.7 mM EDTA, 0.2% BSA). The substrate, [8-3H] cyclic guanosine-3',5'-monophosphate (1 uCi/ul; Perkin Elmer) is diluted 1:2000 with assay buffer (50 mM tris/hydrochloric acid pH 7.5, 8.3 mM magnesium chloride, 1.7 mM EDTA) to a concentration of 0.0005 uCi/ul. By addition of 50 ul (0.025 uCi) of the diluted substrate, the enzyme reaction is finally started. The test mixtures are incubated at room temperature for 60 min and the reaction is stopped by adding 25 ul of a suspension of 18 mg/ml yttrium scintillation proximity beads in water (phosphodiesterase beads for SPA assays, RPNQ 0150, Perkin Elmer). […]

IC50: 570 nM
SMILES: CC1(C)C(=O)Nc2nc(-c3nn(Cc4ccccc4F)c4ncc(F)cc34)nc(CNC(=O)C3CC3)c21
